19 compounds from patent US8088815B2, “Spiroindolinone pyrrolidines” (Hoffman-La Roche Inc., priority 2009, dated 2012) can be followed below.

Broadly, the IC50 is the concentration needed to halve the response being measured.

Structures are written as SMILES.

interaction between p53 and MDM2 proteins, sequence (Q00987 whole entry): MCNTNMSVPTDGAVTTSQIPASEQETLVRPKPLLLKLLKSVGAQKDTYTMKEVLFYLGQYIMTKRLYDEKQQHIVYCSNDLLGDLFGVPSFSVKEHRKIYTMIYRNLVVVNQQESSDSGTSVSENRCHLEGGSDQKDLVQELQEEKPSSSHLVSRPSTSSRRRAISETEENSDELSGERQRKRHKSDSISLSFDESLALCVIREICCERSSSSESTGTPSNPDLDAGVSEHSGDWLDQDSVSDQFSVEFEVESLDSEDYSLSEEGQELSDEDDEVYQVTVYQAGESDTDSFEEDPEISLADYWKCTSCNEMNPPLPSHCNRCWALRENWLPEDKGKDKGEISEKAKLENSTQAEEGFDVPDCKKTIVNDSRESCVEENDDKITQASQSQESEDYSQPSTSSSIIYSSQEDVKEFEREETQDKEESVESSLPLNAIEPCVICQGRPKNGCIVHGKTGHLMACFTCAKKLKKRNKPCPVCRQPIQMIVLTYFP

For the assay, the target named is interaction between p53 and MDM2 proteins (Homo sapiens, UniProt Q00987). The assay is described as follows: HTRF assay of inhibition of the p53-MDM2 interaction (GST-MDM2 / biotinylated p53 peptide). The assay is classed as binding. The settings on record: recombinant GST-tagged MDM2 and biotinylated p53 peptide, bsa:0.02%. The protocol:
The ability of the compounds to inhibit the interaction between p53 and MDM2 proteins was measured by an HTRF (homogeneous time-resolved fluorescence) assay in which recombinant GST-tagged MDM2 binds to a peptide that resembles the MDM2-interacting region of p53. Binding of GST-MDM2 protein and p53-peptide (biotinylated on its N-terminal end) is registered by the FRET (fluorescence resonance energy transfer) between Europium (Eu)-labeled anti-GST antibody and streptavidin-conjugated Allophycocyanin (APC).
Add 10 uL diluted compounds (1:5 dilution in reaction buffer) to each well, mix by shaking. Add 20 uL biotinylated p53 peptide (180 nM working solution) in reaction buffer to each well and mix on shaker. Incubate at 37° C. for 1 h. Add 20 uL streptavidin-APC and Eu-anti-GST antibody mixture (6 nM Eu-anti-GST and 60 nM streptavidin-APC working solution) in TBS buffer with 0.2% BSA, shake at room temperature for 30 minutes and read using a TRF-capable plate reader at
665 and 615 nm (Victor 5, Perkin ElmerWallac). If not specified, the reagents were purchased from Sigma Chemical Co.
In general terms: Time-resolved FRET reads energy transfer from a long-lived donor to a nearby acceptor.
As for `Cn1ccc(NC(=O)[C@@H]2N[C@@H](CC(C)(C)C)[C@@]3(C(=O)Nc4cc(Cl)ccc43)[C@H]2c2cccc(Cl)c2F)cc1=O` (racemic) [Example 27, rac-(2′S,3′R,4′S,5′R)-6-chloro-4′-(3-chloro-2-fluoro-phenyl)-2′-(2,2-dimethyl-propyl)-2-oxo-1,2-dihydro-spiro[indole-3,3′-pyrrolidine]-5′-carboxylic acid (1-methyl-2-oxo-1,2-dihydro-pyridin-4-yl)-amide], the IC50 is 17 nM.

Take `CC(C)(C)C[C@@H]1N[C@@H](C(=O)Nc2ccc(C#N)s2)[C@H](c2cccc(Cl)c2F)[C@]12C(=O)Nc1cc(Cl)ccc12` (racemic) [Example 187, rac-(2′S,3′R,4′S,5′R)-6-chloro-4′-(3-chloro-2-fluoro-phenyl)-2′-(2,2-dimethyl-propyl)-2-oxo-1,2-dihydro-spiro[indole-3,3′-pyrrolidine]-5′-carboxylic acid (5-cyano-thiophen-2-yl)-amide]: the concentration for half-maximal inhibition (IC50) was found to be 15 nM.

Take `CC(C)(C)C[C@@H]1N[C@@H](C(=O)Nc2ccc(C(N)=O)cc2OC(F)(F)F)[C@H](c2cccc(Cl)c2F)[C@]12C(=O)Nc1cc(Cl)ccc12` (racemic) [Example 146, rac-(2′S,3′R,4′S,5′R)-6-chloro-4′-(3-chloro-2-fluoro-phenyl)-2′-(2,2-dimethyl-propyl)-2-oxo-1,2-dihydro-spiro[indole-3,3′-pyrrolidine]-5′-carboxylic acid (4-carbamoyl-2-trifluoromethoxy-phenyl)-amide]: the IC50 is 14 nM.

Consider `COc1cc(C#N)ccc1NC(=O)[C@@H]1N[C@@H](CC(C)(C)C)[C@@]2(C(=O)Nc3cc(Br)ccc32)[C@H]1c1cccc(Cl)c1F` (racemic) [Example 118, rac-(2′S,3′R,4′S,5′R)-6-bromo-4′-(3-chloro-2-fluoro-phenyl)-2′-(2,2-dimethyl-propyl)-2-oxo-1,2-dihydro-spiro[indole-3,3′-pyrrolidine]-5′-carboxylic acid (4-cyano-2-methoxy-phenyl)-amide], for which the half-maximal inhibitory concentration (IC50) turned out to be 11 nM.

With `CC(C)(C)C[C@@H]1N[C@@H](C(=O)Nc2nc(C(=O)O)cs2)[C@H](c2cccc(Cl)c2F)[C@]12C(=O)Nc1cc(Cl)ccc12` (racemic) [Example 197, rac-2-{[(2′S,3′R,4′S,5′R)-6-chloro-4′-(3-chloro-2-fluoro-phenyl)-2′-(2,2-dimethyl-propyl)-2-oxo-1,2-dihydro-spiro[indole-3,3′-pyrrolidine]-5′-carbonyl]amino}-thiazole-4-carboxylic acid], the IC50 was found to be 51 nM.

As for `CC(C)(C)C[C@@H]1N[C@@H](C(=O)Nc2ccc(C(N)=O)cc2)[C@H](c2cccc(Cl)c2F)[C@]12C(=O)Nc1cc(Cl)cc(F)c12` [Example 74, chiral (2′S,3′R,4′S,5′R)-6-chloro-4′-(3-chloro-2-fluoro-phenyl)-2′-(2,2-dimethyl-propyl)-4-fluoro-2-oxo-1,2-dihydro-spiro[indole-3,3′-pyrrolidine]-5′-carboxylic acid (4-carbamoyl-phenyl)-amide], the IC50 was determined as 6 nM.

For the compound `CC(C)(C)C[C@@H]1N[C@@H](C(=O)Nc2ccc(C#N)cc2)[C@H](c2cccc(Br)c2F)[C@]12C(=O)Nc1cc(Cl)ccc12` (racemic) [Example 98, rac-(2′S,3′R,4′S,5′R)-4′-(3-bromo-2-fluoro-phenyl)-6-chloro-2′-(2,2-dimethyl-propyl)-2-oxo-1,2-dihydro-spiro[indole-3,3′-pyrrolidine]-5′-carboxylic acid (4-cyano-phenyl)-amide], the concentration for half-maximal inhibition (IC50) was found to be 18 nM.

With `COC(=O)c1ccc(NC(=O)[C@@H]2N[C@@H](CC(C)(C)C)[C@@]3(C(=O)Nc4cc(Cl)ccc43)[C@H]2c2cccc(Cl)c2F)cc1OC` (racemic) [Example 15, rac-4-{[(2′S,3′R,4′S,5′R)-6-chloro-4′-(3-chloro-2-fluoro-phenyl)-2′-(2,2-dimethyl-propyl)-2-oxo-1,2-dihydro-spiro[indole-3,3′-pyrrolidine]-5′-carbonyl]amino}-2-methoxy-benzoic acid methyl ester], the IC50 was 13 nM.

As for `COC(=O)c1ccc(NC(=O)[C@@H]2N[C@@H](CC(C)(C)C)[C@@]3(C(=O)Nc4cc(Cl)ccc43)[C@H]2c2cccc(Cl)c2)c(OC)c1` (racemic) [Example 107, rac-4-{[(2′S,3′R,4′R,5′R)-6-chloro-4′-(3-chloro-phenyl)-2′-(2,2-dimethyl-propyl)-2-oxo-1,2-dihydro-spiro[indole-3,3′-pyrrolidine]-5′-carbonyl]-amino}-3-methoxy-benzoic acid methyl ester], the IC50 is 17 nM.

Regarding `CCOc1cc(C(=O)O)ccc1NC(=O)[C@@H]1N[C@@H](CC(C)(C)C)[C@@]2(C(=O)Nc3cc(Cl)ccc32)[C@H]1c1cccc(Cl)c1F` (racemic) [Example 130, rac-4-{[(2′S,3′R,4′S,5′R)-6-chloro-4′-(3-chloro-2-fluoro-phenyl)-2′-(2,2-dimethyl-propyl)-2-oxo-1,2-dihydro-spiro[indole-3,3′-pyrrolidine]-5′-carbonyl]amino}-3-ethoxy-benzoic acid], the IC50 came out at 11 nM.

In the case of `CC(=O)c1ccc(NC(=O)[C@@H]2N[C@@H](CC(C)(C)C)[C@@]3(C(=O)Nc4cc(Cl)ccc43)[C@H]2c2cccc(Cl)c2F)cc1` [Example 12, chiral (2′S,3′R,4′S,5′R)-6-chloro-4′-(3-chloro-2-fluoro-phenyl)-2′-(2,2-dimethyl-propyl)-2-oxo-1,2-dihydro-spiro[indole-3,3′-pyrrolidine]-5′-carboxylic acid (4-acetyl-phenyl)-amide], the concentration for half-maximal inhibition (IC50) stood at 6 nM.

With `COc1cc(C#N)ccc1NC(=O)[C@@H]1N[C@@H](CC(C)(C)C)[C@@]2(C(=O)Nc3cc(Cl)ccc32)[C@H]1c1cccc(Cl)c1` (racemic) [Example 66, rac-(2′S,3′R,4′R,5′R)-6-chloro-4′-(3-chloro-phenyl)-2′-(2,2-dimethyl-propyl)-2-oxo-1,2-dihydro-spiro[indole-3,3′-pyrrolidine]-5′-carboxylic acid (4-cyano-2-methoxy-phenyl)-amide], the 50% inhibitory concentration (IC50) worked out at 14 nM.

Consider `Cn1cccc1NC(=O)[C@@H]1N[C@@H](CC(C)(C)C)[C@@]2(C(=O)Nc3cc(Cl)ccc32)[C@H]1c1cccc(Cl)c1F` (racemic) [Example 195, rac-(2′S,3′R,4′S,5′R)-6-chloro-4′-(3-chloro-2-fluoro-phenyl)-2′-(2,2-dimethyl-propyl)-2-oxo-1,2-dihydro-spiro[indole-3,3′-pyrrolidine]-5′-carboxylic acid (1-methyl-1H-pyrrol-2-yl)-amide], for which the 50% inhibitory concentration (IC50) came out at 15 nM.

Regarding `CC(C)(C)C[C@@H]1N[C@@H](C(=O)Nc2ccc(C#N)cc2)[C@H](c2cc(F)cc(Cl)c2)[C@]12C(=O)Nc1cc(Cl)ccc12` (racemic) [Example 88, rac-(2′S,3′R,4′R,5′R)-6-chloro-4′-(3-chloro-5-fluoro-phenyl)-2′-(2,2-dimethyl-propyl)-2-oxo-1,2-dihydro-spiro[indole-3,3′-pyrrolidine]-5′-carboxylic acid (4-cyano-phenyl)-amide], the half-inhibitory concentration (IC50) was 13 nM.

Take `CC(C)(C)C[C@@H]1N[C@@H](C(=O)Nc2cccc(C(=O)O)c2)[C@H](c2cccc(Cl)c2F)[C@]12C(=O)Nc1cc(Cl)ccc12` (racemic) [Example 32, rac-3-{[(2′S,3′R,4′S,5′R)-6-chloro-4′-(3-chloro-2-fluoro-phenyl)-2′-(2,2-dimethyl-propyl)-2-oxo-1,2-dihydro-spiro[indole-3,3′-pyrrolidine]-5′-carbonyl]-amino}-benzoic acid]: the IC50 turned out to be 17 nM.

On to `CC(C)(C)C[C@@H]1N[C@@H](C(=O)Nc2ccc(OCC(=O)O)cc2)[C@H](c2cccc(Cl)c2F)[C@]12C(=O)Nc1cc(Cl)ccc12` (racemic) [Example 206, rac-(4-{[(2′S,3′R,4′S,5′R)-6-chloro-4′-(3-chloro-2-fluoro-phenyl)-2′-(2,2-dimethyl-propyl)-2-oxo-1,2-dihydro-spiro[indole-3,3′-pyrrolidine]-5′-carbonyl]amino}-phenoxy)-acetic acid], for which the IC50 is 6 nM.

`COc1cc(C#N)ccc1NC(=O)[C@@H]1N[C@@H](CC(C)(C)C)[C@@]2(C(=O)Nc3cc(Cl)c(F)cc32)[C@H]1c1cccc(Cl)c1F` (racemic) [Example 112, rac-(2′S,3′R,4′S,5′R)-6-chloro-4′-(3-chloro-2-fluoro-phenyl)-2′-(2,2-dimethyl-propyl)-5-fluoro-2-oxo-1,2-dihydro-spiro[indole-3,3′-pyrrolidine]-5′-carboxylic acid (4-cyano-2-methoxy-phenyl)-amide]: the 50% inhibitory concentration (IC50) is 15 nM.

For the compound `CC(C)(C)C[C@@H]1N[C@@H](C(=O)Nc2ccc(C(N)=O)cc2)[C@H](c2cccc(Cl)c2)[C@]12C(=O)Nc1cc(Cl)ccc12` (racemic) [Example 65A, rac-(2′S,3′R,4′R,5′R)-6-chloro-4′-(3-chloro-phenyl)-2′-(2,2-dimethyl-propyl)-2-oxo-1,2-dihydro-spiro[indole-3,3′-pyrrolidine]-5′-carboxylic acid (4-carbamoyl-phenyl)-amide], the half-maximal inhibitory concentration (IC50) is 9 nM.

For `COc1cc(OCCCS(C)(=O)=O)ccc1NC(=O)[C@@H]1N[C@@H](CC(C)(C)C)[C@@]2(C(=O)Nc3cc(Cl)ccc32)[C@H]1c1cccc(Cl)c1F` [Example 181, chiral (2′S,3′R,4′S,5′R)-6-chloro-4′-(3-chloro-2-fluoro-phenyl)-2′-(2,2-dimethyl-propyl)-2-oxo-1,2-dihydro-spiro[indole-3,3′-pyrrolidine]-5′-carboxylic acid [4-(3-methanesulfonyl-propoxy)-2-methoxy-phenyl]-amide], the 50% inhibitory concentration (IC50) stood at 6 nM.
